Data as given in patent US6521456B1, “Cellular transport system for the transfer of a nucleic acid through the nuclear envelope and methods thereof” (priority 1999, dated 2003).

System: promoter of the ampicillin resistance gene (expression vector DNA)
Experiment: Binding of PNA-peptide-hybrids to double stranded vector DNA (inhibition of Earl cleavage at the PNA binding site)
Conditions: 25 μM PNA-peptide-hybrid, 100 ng vector
Experimental: 100 ng expression vector were incubated in TE (pH 7,8) with 25 μM of different PNA-peptide-hybrids at either 65° C. or 37° C. for five minutes to three hours. The PNA-sequence NH2-CTCTTCCTTTTTC-COOH (SEQ ID NO: 6) used here, binds to the promoter of the ampicillin resistance gene.
At the C-terminus either a peptide of 21 amino acids (Peptide 1) or 27 amino acids (Peptide 2) or a spacer of 10 AEEA-units (Fmoc-AEEA-OH Spacer, PerSeptive Biosystems Inc., Framingham, USA) followed by 27 amino acids (Peptide 3) is located. The binding assays were subsequently incubated with restriction endonuclease Earl. Restricted DNA was stained with YOYO (Molecular Probes, Inc., Eugene, Oreg., USA) separated on an agarose gel and quantified with a fluorescence scanner (Image Plate Reader FLA 2000, analysis software L-Process, version 1.6, Fuji Photo Film Co., Ltd., Tokio). Cleavage of DNA by restriction endonuclease Earl is inhibited at the PNA binding site. Additional Earl restriction sites serve as internal control of the reaction.

For H-GKPTADDQHSTPPKKKRKVED-OH [Peptide 1], the “Portion of peptide-labelled DNA shown as percentage of input DNA” value (shortened to “Portion … as percentage of input DNA”) (37 °C, 60 min) was 85%, the “Portion … as percentage of input DNA” value (37 °C, 120 min) was 91% and the “Portion … as percentage of input DNA” value (37 °C, 180 min) was 94%. The “Portion … as percentage of input DNA” value (65 °C, 5 min) was 94%, the “Portion … as percentage of input DNA” value (65 °C, 10 min) was 96% and the “Portion … as percentage of input DNA” value (65 °C, 15 min) was 96%.

With “H-GKPSSDDEATADSQHSTPPKKKRKVED-OH [Peptide 2]” the “Portion … as percentage of input DNA” value (37 °C, 60 min) was 90%, the “Portion … as percentage of input DNA” value (37 °C, 120 min) was 91% and the “Portion … as percentage of input DNA” value (37 °C, 180 min) was 94%. For the same substance, the “Portion … as percentage of input DNA” value (65 °C, 5 min) was 96%, the “Portion … as percentage of input DNA” value (65 °C, 10 min) was 97% and the “Portion … as percentage of input DNA” value (65 °C, 15 min) was 97%.

For “NH2-(AEEA)10-GKPSSDDEATADSQHSTPPKKKRKVED-COOH [Peptide 3]”, the “Portion … as percentage of input DNA” value (37 °C, 60 min) was 74%, the “Portion … as percentage of input DNA” value (37 °C, 120 min) was 76% and the “Portion … as percentage of input DNA” value (37 °C, 180 min) was 90%. The “Portion … as percentage of input DNA” value (65 °C, 5 min) was 91%, the “Portion … as percentage of input DNA” value (65 °C, 10 min) was 95% and the “Portion … as percentage of input DNA” value (65 °C, 15 min) was 95%.
